# Experimental data: patent US20250313562A1, “Substituted tricyclic ligands for FK506-binding proteins for treatment of diseases” (Technische Universität Darmstadt, priority 2024, published 2025)
# Legend:
# FKBP51 [1] = biological target: T1, FKBP51 (Homo sapiens, UniProt Q13451); test: competitive fluorescence polarization assay, FKBP51; assay type: binding
# T1 sequence (Q13451 1-457): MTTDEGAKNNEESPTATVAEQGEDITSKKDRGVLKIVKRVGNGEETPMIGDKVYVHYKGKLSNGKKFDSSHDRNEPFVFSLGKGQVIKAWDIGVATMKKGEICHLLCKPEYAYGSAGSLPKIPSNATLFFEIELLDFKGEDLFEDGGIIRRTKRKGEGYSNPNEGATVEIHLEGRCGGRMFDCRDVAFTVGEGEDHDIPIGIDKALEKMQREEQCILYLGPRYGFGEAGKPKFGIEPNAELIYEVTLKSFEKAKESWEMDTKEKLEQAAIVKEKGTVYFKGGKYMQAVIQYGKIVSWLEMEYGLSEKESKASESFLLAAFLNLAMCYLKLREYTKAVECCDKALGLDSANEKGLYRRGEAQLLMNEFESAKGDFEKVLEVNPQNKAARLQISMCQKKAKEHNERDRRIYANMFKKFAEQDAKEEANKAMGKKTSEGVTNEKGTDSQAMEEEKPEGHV
# Protocol: (§1) Affinity determination by competitive fluorescence polarization assay. The synthesized tricyclic sulfonamides were tested for their binding affinities to human FKBPs (FKBP12 and FKBP51) by the fluorescence polarization assay (Table 1).
# FKBP12 [2] = biological target: T2, FKBP12 (Homo sapiens, UniProt P62942); test: competitive fluorescence polarization assay, FKBP12; assay type: binding
# Protocol: as §1
# FKBP51 [3] = biological target: T1, FKBP51; test: nanoBRET assay, intracellular FKBP51 occupancy in HEK293T cells; assay type: cell-based; details: for IC50: intracellular occupancy; for displacement of the tracer for FKBP51 (potency in words): nanoBRET
# Protocol: (§2) For compounds 31 and 32 target engagement of FKBP12 and FKBP51 in the HEK293T cells was tested (Table 2).
# FKBP12 [4] = biological target: T2, FKBP12; test: nanoBRET assay, intracellular FKBP12 occupancy in HEK293T cells; assay type: cell-based; details: for IC50: intracellular occupancy
# Protocol: as §2
# T2 sequence (P62942 whole entry): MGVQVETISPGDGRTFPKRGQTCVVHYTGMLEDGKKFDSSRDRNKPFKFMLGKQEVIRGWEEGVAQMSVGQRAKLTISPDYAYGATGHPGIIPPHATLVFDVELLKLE
smiles,measurement,setting,value
C=C[C@@H]1C2CCCC(C(=O)N3[C@H](C(=O)OC)CC[C@@H]13)N2S(=O)(=O)c1cc(Cl)cc(Cl)c1 (stereo partly drawn) [Compound 20],Ki,FKBP51 [1],76 ± 10 nM
same,Ki,FKBP12 [2],1 ± 0.1 nM
C=C[C@@H]1C2CCCC(C(=O)N3[C@H](C(=O)N4C[C@@H]5C[C@H]4CN5)CC[C@@H]13)N2S(=O)(=O)c1cc(Cl)cc(Cl)c1 [Compound 28],Ki,FKBP51 [1],52 ± 6 nM
same,Ki,FKBP12 [2],0.72 ± 0.1 nM
C=C[C@@H]1C2CCCC(C(=O)N3[C@H](C(=O)N4CCN(C)CC4)CC[C@@H]13)N2S(=O)(=O)c1cc(Cl)cc(Cl)c1 (stereo partly drawn) [Compound 26],Ki,FKBP51 [1],11 ± 0.7 nM
same,Ki,FKBP12 [2],0.16 ± 0.018 nM
CCNC(=O)[C@@H]1CC[C@H]2[C@H](CO)C3CCCC(C(=O)N12)N3S(=O)(=O)c1cc(Cl)cc(Cl)c1 (stereo in doubt) [Compound 31],IC50,FKBP51 [3],8.5 ± 0.6 nM
same,displacement of the tracer for FKBP51 (potency in words),FKBP51 [3],low nanomolar potency
same,IC50,FKBP12 [4],3.9 ± 0.3 nM
same,Ki,FKBP51 [1],0.76 ± 0.2 nM
same,Ki,FKBP12 [2],0.013 ± 0.004 nM
CC1CCN(C(=O)[C@@H]2CC[C@H]3[C@H](CO)C4CCCC(C(=O)N23)N4S(=O)(=O)c2cc(Cl)cc(Cl)c2)CC1 (stereo in doubt) [Compound 32],IC50,FKBP51 [3],3.3 ± 0.3 nM
same,displacement of the tracer for FKBP51 (potency in words),FKBP51 [3],low nanomolar potency
same,IC50,FKBP12 [4],0.49 ± 0.04 nM
same,competition with the tracer for FKBP12 (potency in words),FKBP12 [4]; nanoBRET,subnanomolar potency
same,Ki,FKBP51 [1],0.72 ± 0.2 nM
same,Ki,FKBP12 [2],0.019 ± 0.007 nM
C=C[C@@H]1C2CCCC(C(=O)N3[C@H](C(=O)N4CCC(C)CC4)CC[C@@H]13)N2S(=O)(=O)c1cc(Cl)cc(Cl)c1 (stereo partly drawn) [Compound 25],Ki,FKBP51 [1],0.93 ± 0.2 nM
same,Ki,FKBP12 [2],0.067 ± 0.01 nM
C=C[C@@H]1C2CCCC(C(=O)N3[C@H](C(=O)N(C)C)CC[C@@H]13)N2S(=O)(=O)c1cc(Cl)cc(Cl)c1 (stereo partly drawn) [Compound 23],Ki,FKBP51 [1],121 ± 8 nM
same,Ki,FKBP12 [2],2.3 ± 0.2 nM
C=C[C@@H]1C2CCCC(C(=O)N3[C@H](C(=O)NCC)CC[C@@H]13)N2S(=O)(=O)c1cc(Cl)cc(Cl)c1 (stereo partly drawn) [Compound 24],Ki,FKBP51 [1],1.1 ± 0.4 nM
same,Ki,FKBP12 [2],0.043 ± 0.01 nM
C=C[C@H]1[C@@H]2CC[C@@H](c3ccccn3)N2C(=O)C2CCC[C@@H]1N2S(=O)(=O)c1cc(Cl)cc(Cl)c1 [Compound 30],Ki,FKBP51 [1],464 ± 79 nM
same,Ki,FKBP12 [2],12 ± 1.6 nM
C=C[C@@H]1C2CCCC(C(=O)N3[C@H](C(=O)O)CC[C@@H]13)N2S(=O)(=O)c1cc(Cl)cc(Cl)c1 (stereo partly drawn) [Compound 3],Ki,FKBP51 [1],698 ± 49 nM
same,Ki,FKBP12 [2],12 ± 1.7 nM
C=C[C@@H]1C2CCCC(C(=O)N3[C@H](C(=O)NC)CC[C@@H]13)N2S(=O)(=O)c1cc(Cl)cc(Cl)c1 (stereo partly drawn) [Compound 22],Ki,FKBP51 [1],7.7 ± 0.9 nM
same,Ki,FKBP12 [2],0.32 ± 0.04 nM
C=C[C@@H]1C2CCCC(C(=O)N3[C@H](C(N)=O)CC[C@@H]13)N2S(=O)(=O)c1cc(Cl)cc(Cl)c1 (stereo partly drawn) [Compound 21],Ki,FKBP51 [1],18 ± 3 nM
same,Ki,FKBP12 [2],0.48 ± 0.08 nM
C=C[C@@H]1C2CCCC(C(=O)N3[C@H](C(=O)N4C[C@@H]5C[C@H]4CN5C)CC[C@@H]13)N2S(=O)(=O)c1cc(Cl)cc(Cl)c1 [Compound 27],Ki,FKBP51 [1],17 ± 1.7 nM
same,Ki,FKBP12 [2],0.55 ± 0.07 nM
